The subject of series [1] is house flies, Musca domestica. Put plainly: Topical insecticidal activity against house flies (percent mortality 24 hours after application). The following applies: read-out: House flies LD50. The format is in vivo. The procedure: (§1) Representative compounds of the N,N'-sulfinyldicarbamate esters of the invention were tested for insecticidal activity against two insect species, house flies, Musca domestica, and mosquito larvae, Culex pipiens. Stock 1% concentrated solutions of each of the test compounds were made in acetone, and such solutions diluted with acetone to a concentration of 0.001-0.1%. House flies were treated topically on the notum by 1 μl of each of the diluted acetone solutions and percent mortality was counted 24 hours after application. Insects were held at a constant temperature of 60° F. Larvicidal activity was determined by applying 1 ml of the acetone solution in 100 ml of water containing 20 3rd instar mosquito larvae. Results are presented as LD50 in μg/g for house flies and LC50 in ppm for mosquito larvae.

The test system of series [2] is mosquito larvae, Culex pipiens. Kind of series: Larvicidal activity against mosquito larvae. It is filed as in vivo. As to conditions: 3rd instar larvae, 1 ml acetone solution in 100 ml water, 20 larvae. The protocol: as §1
A further series in a line: in vivo. The following applies: mouse, in vivo, po. The procedure:
(§2) Mammalian toxicity was determined against Swiss white mice. The test compound was applied orally using corn oil or propylene glycol as the carrier, depending upon solubility of the compound therein.

In the next series the test system is Swiss white mice. Kind of series: in vivo. The procedure:
as §2

Where [3] appears, read: topical on the notum, 1 μl acetone solution, 24 hours, 60° F.

Where two headings read alike, the source gives them in different places.

One may read the LD50 as the dose at which mortality reaches 50%. With `CCOC(=O)N(C)[S+]([O-])N(C)C(=O)Oc1cccc2c1OC(C)(C)C2` (centres unmarked) [VIII, 2,3-dihydro-2,2-dimethylbenzofuranyl-7 N-[N'-(ethoxycarbonyl)-N'-(methylaminosulfinyl)]-N-methylcarbamate], the LD50 in series [1] (topical, 24 h) came to 13 mg/kg; in “in vivo”, 56 mg/kg. Besides, the “Culex LC50” value in series [2] is 0.04 ppm.
Compound `CNC(=O)ON=C(C)SC` [S-methyl N-(methylcarbamoyloxy)thioacetimidate, reference compound] displayed an LD50 in the series “in vivo” of 10 mg/kg.
In the case of `CCCOC(=O)N(C)[S+]([O-])N(C)C(=O)Oc1cccc2c1OC(C)(C)C2` (centres unmarked) [IX, 2,3-dihydro-2,2-dimethylbenzofuranyl-7 N-[N'-(n-propoxycarbonyl)-N'-(methylaminosulfinyl)]-N-methylcarbamate], the LD50 worked out at 9 mg/kg in series [1] (topical, 24 h) and 100 mg/kg in the series “in vivo”.
`CSC(C)(C)C=NOC(=O)N(C)[S+]([O-])N(C)C(=O)ON=CC(C)(C)SC` [IV, N,N'-sulfinyldi[2-methyl-2-(methylthio)propionaldehyde O-(methylcarbamoyl)-oxime]]: the LD50 in series [1] (setting [3]) turned out to be 6.5 mg/kg; in the series “in vivo”, 1.8 mg/kg.
On to `CCCOC(=O)N(C)[S+]([O-])N(C)C(=O)Oc1ccccc1OC(C)C` (centres unmarked) [XI, 2-isopropoxyphenyl N-[N'-(n-propoxycarbonyl)-N'-(methylaminosulfinyl)]-N-methylcarbamate], for which the LD50 is 20 mg/kg in series [1] (topical, 24 h) and 500 to 1000 mg/kg in “in vivo”. Further, in series [2], the “Culex LC50” value was found to be 0.18 ppm.
Consider `COC(=O)N(C)[S+]([O-])N(C)C(=O)Oc1cccc2c1OC(C)(C)C2` (centres unmarked) [Example VII, 2,3-dihydro-2,2-dimethylbenzofuranyl-7 N-[N'-(methoxycarbonyl)-N'-(methylaminosulfinyl)]-N-methylcarbamate], for which the LD50 was determined as 9 mg/kg in series [1] (topical, 24 h) and 62 mg/kg in the series “in vivo”.
In the case of `COC(=O)N(C)[S+]([O-])N(C)C(=O)Oc1cccc(C(C)C)c1` (centres unmarked) [XII, 3-isopropylphenyl N-[N'-(methoxycarbonyl)-N'-(methylaminosulfinyl)]-N-methylcarbamate], the LD50 in series [1] (topical, 24 h) is 80 mg/kg; in the series “in vivo”, 70 mg/kg.
Regarding `CSC(C)=NOC(=O)N(C)[S+]([O-])N(C)C(=O)ON=C(C)SC` [Example III], the LD50 in series [1] (setting [3]) turned out to be 40 mg/kg; in the series “in vivo”, 210 mg/kg.
`CC(C)Oc1ccccc1OC(=O)N(C)[S+]([O-])N(C)C(=O)Oc1ccccc1OC(C)C` [Example II, N,N'-sulfinyldi-(2-isopropoxyphenyl methylcarbamate)]: the LD50 is 85 mg/kg in series [1] (topical, 24 h) and 940 mg/kg in the series “in vivo”.
As for `CN(C(=O)Oc1cccc2c1OC(C)(C)C2)[S+]([O-])N(C)C(=O)Oc1cccc2c1OC(C)(C)C2` [Example I, N,N'-sulfinyldi-(2,3-dimethyl-2,3-dihydrobenzofuranyl-7 methylcarbamate)], the LD50 in series [1] (topical, 24 h) is 20 mg/kg; in the series “in vivo” it was 165 mg/kg.
For `CNC(=O)Oc1ccccc1OC(C)C` [2-isopropoxyphenyl methylcarbamate, reference compound], the “Mice LD50” value in the series on Swiss white mice (oral, corn oil or propylene glycol carrier) is 60 mg/kg.
Take `CCCOC(=O)N(CC)[S+]([O-])N(C)C(=O)ON=C(C)SC` (centres unmarked) [Example V]: the LD50 in series [1] (setting [3]) came out at 7 mg/kg; in the series “in vivo” it was 115 mg/kg.
Turning to `CCCCCCCOC(=O)N(C)[S+]([O-])N(C)C(=O)Oc1cccc2c1OC(C)(C)C2` (centres unmarked) [X, 2,3-dihydro-2,2-dimethylbenzofuranyl-7 N-[N'-(n-heptoxycarbonyl)-N'-(methylaminosulfinyl)]-N-methylcarbamate], the LD50 in series [1] (topical, 24 h) was determined as 13.5 mg/kg; in “in vivo”, 150 mg/kg. The “Culex LC50” value in series [2] was determined as 0.015 ppm.
On to `CNC(=O)Oc1cccc2c1OC(C)(C)C2` [carbofuran, 2,3-dihydro-2,2-dimethyl-7-benzofuranyl methylcarbamate, reference compound], for which, in the series with Swiss white mice (mouse, in vivo, po), the “Mice LD50” value was 2-8.
As to `CCOC(=O)N(C)[S+]([O-])N(C)C(=O)Oc1cccc(C(C)C)c1` (centres unmarked) [3-isopropylphenyl N-[N'-(ethoxycarbonyl)-N'-(methylaminosulfinyl)]-N-methylcarbamate], the LD50 in series [1] (topical, 24 h) is 75 mg/kg; in “in vivo” it was 50 to 100 mg/kg.
For `CCCOC(=O)N(C)[S+]([O-])N(C)C(=O)ON=C(C)SC` (centres unmarked) [Example VI], the results for the LD50 (in series [1] (setting [3]); in “in vivo”) were 6.6 mg/kg and 160 mg/kg, respectively.

For the origin of these results see patent US4298617A, “Symmetrical and asymmetrical sulfinyl-dicarbamates” (priority 1979, dated 1981).
